Measurements from PMC10470519, “CryoEM analysis of the essential native UDP-glucose pyrophosphorylase from Aspergillus nidulans reveals key conformations for activity regulation and function” (mBio, 2023).

Legend:
AnUGP = molecular target: T1, AnUGP (Aspergillus nidulans, UniProt C8VK50); experiment: malachite green phosphate assay coupled to inorganic pyrophosphatase; type: biochemical; conditions: 0.25 mM UTP, 0.25 mM Glc-1-P, 2 mM MgCl2, 100 mM NaCl, 50 mM Tris-HCl pH 7.5, 30 °C
T1 construct: gene ANIA_09148; homooctamer
T1 sequence (C8VK50 1-514): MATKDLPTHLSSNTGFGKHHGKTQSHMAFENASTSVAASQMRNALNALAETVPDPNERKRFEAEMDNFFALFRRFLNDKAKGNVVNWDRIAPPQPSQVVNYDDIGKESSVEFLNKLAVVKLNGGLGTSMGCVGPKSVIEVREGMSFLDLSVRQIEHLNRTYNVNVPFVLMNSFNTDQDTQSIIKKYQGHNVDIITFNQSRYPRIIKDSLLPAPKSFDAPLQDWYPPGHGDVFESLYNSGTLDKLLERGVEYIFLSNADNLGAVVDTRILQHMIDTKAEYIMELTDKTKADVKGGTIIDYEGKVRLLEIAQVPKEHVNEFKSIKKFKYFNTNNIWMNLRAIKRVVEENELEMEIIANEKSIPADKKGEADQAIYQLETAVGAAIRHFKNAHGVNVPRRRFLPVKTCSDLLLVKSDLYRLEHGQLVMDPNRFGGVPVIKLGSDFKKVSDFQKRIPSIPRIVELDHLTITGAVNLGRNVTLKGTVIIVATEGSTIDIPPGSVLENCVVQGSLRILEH

[1] = molecular target: UDP-glucose pyrophosphorylase from Aspergillus nidulans (Aspergillus nidulans); experiment: cryo-EM structure; native AnUGP in buffer A at 0.18 mg/mL, vitrified on Quantifoil R1.2/1.3 grids; Titan Krios 300 kV; C1, D4 and locally refined maps; 3D variability analysis
[2] = molecular target: UDP-glucose pyrophosphorylase from Aspergillus nidulans (Aspergillus nidulans); experiment: SEC; Superose 6 GL 10/300 in buffer A (50 mM Tris, 200 mM NaCl, 2 mM β-mercaptoethanol, pH 7.8); peak around 14.5 mL

| Molecule | malachite green phosphate assay coupled to inorganic pyrophosphatase (AnUGP) | stoichiometry N [1] | stoichiometry N [2] |
| --- | --- | --- | --- |
| O=P(O)(O)O[C@H]1O[C@H](CO)[C@@H](O)[C@H](O)[C@H]1O [Glc-1-P] | AnUGP catalyzes the condensation reaction between UTP and Glc-1-P to produce UDP-Glc and PPi |  |  |
| O=c1ccn([C@@H]2O[C@H](COP(=O)(O)OP(=O)(O)OP(=O)(O)O)[C@@H](O)[C@H]2O)c(=O)[nH]1 [UTP] | the enzyme was specific for UTP and unable to use ATP or GTP |  |  |
| UDP-glucose pyrophosphorylase from Aspergillus nidulans (enzyme) |  | 8 | 8 |
